Data set [1] has as its system S. aureus SA-2017. As to the kind of experiment: Cross resistance antibacterial assay (MIC), strain 6. Type of data set: cell-based. The settings on record: Staphylococcus aureus, SA2017; S. aureus SA-2017, multiple drug resistant (methicillin, ciprofloxacin); read-out: Minimum Inhibitory Concentrations in Strain 6. The text has this:
(§1) Test C—Cross Resistance Antibacterial Assay

In data set [2] the test system is S. pyogenes C-203. As to the kind of experiment: In vivo activity (mouse), median protective dose in lethal systemic infection. As to conditions: mice. Here is the method: Test B—In Vivo Activity (Mouse)
The in vivo activity was obtained when the compounds were tested according to the procedure of Miller, et al. (Proc. Soc. Exp. Biol. Med., 1944; 57:261). The median protective dose (PD50) was determined in mice given lethal systemic infections, as depicted in Table 4.

For data set [3], the system named is E. faecalis EF-3838. In words: Cross resistance antibacterial assay (MIC), strain 3. Type of data set: cell-based. The settings on record: Enterococcus faecalis, EF3838; E. faecalis EF-3838, multiple drug resistant (vancomicin, erythromycin, gentamicin); read-out: Minimum Inhibitory Concentrations in Strain 3.
Source text: as §1

In data set [4] the test system is S. aureus SA-3528. In words: Cross resistance antibacterial assay (MIC), strain 7. The class given is cell-based. The settings on record: Staphylococcus aureus, SA3528; S. aureus SA-3528, multiple drug resistant (MLS); read-out: Minimum Inhibitory Concentrations in Strain 7.
Source text: as §1

The test system of data set [5] is E. faecalis EF-13524. As to the kind of experiment: Cross resistance antibacterial assay (MIC), strain 2. The class given is cell-based. The settings on record: Enterococcus faecalis, EF13524; E. faecalis EF-13524, vancomicin resistant strain; read-out: Minimum Inhibitory Concentrations in Strain 2.
Source text: as §1

Data set [6] concerns S. aureus SA-3839. In words: Cross resistance antibacterial assay (MIC), strain 8. Type of data set: cell-based. The settings on record: Staphylococcus aureus, SA3839; S. aureus SA-3839, multiple drug resistant (linezolid and methicillin); read-out: Minimum Inhibitory Concentrations in Strain 8.
Source text: as §1

The test system of data set [7] is S. aureus UC-76. In words: Antibacterial assay (MIC), standard microtitration, Gram positive. The class given is cell-based. The settings on record: Staphylococcus aureus, UC76; Gram positive bacteria; read-out: Minimum Inhibitory Concentrations S. aureus UC-76. From the text: (§2) Test A—Antibacterial Assays
For data set [8], the system named is S pyogenes C203. The description is as above. The class given is cell-based. The settings on record: Gram positive bacteria; read-out: Minimum Inhibitory Concentrations S pyogenes C203.
Source text: as §2

Data set [9] deals with E. faecalis MGH-2. The data set is described as above. The class given is cell-based. As to conditions: Enterococcus faecalis, MGH2; Gram positive bacteria; read-out: Minimum Inhibitory Concentrations E. faecalis MGH-2.
Source text: as §2

In data set [10] the test system is E. faeciaum EF4-3525. As to the kind of experiment: Cross resistance antibacterial assay (MIC), strain 4. The settings on record: read-out: Minimum Inhibitory Concentrations in Strain 4.
Description: (§3) The compounds of the present invention were tested against an assortment of drug resistant organisms described below using standard microtitration techniques (Cohen, et. al., Antimicrob. Agents Chemother., 1985; 28:766; Heifetz, et. al., Antimicrob. Agents Chemother, 1974; 6:124). […] E. faeciaum EF4-3525: Vancomicin resitant strain. • 5. E. faeciaum EF4-3836: Multiple drug resitant strain (lineozolid, AZD2563-R, vancomicin, ampicillin, macrolide-R, quinolone-R, trimeothprim/sulfamethoxazole). • 6.
In data set [11] the test system is M. catarrhalis BC3534. In words: Antibacterial assay (MIC), standard microtitration, Gram negative. The settings on record: Moraxella catarrhalis, BC3534; Gram negative bacteria; read-out: Minimum Inhibitory Concentrations M. catarrhalis BC3534. Type of data set: cell-based.
Source text: as §2

The subject of data set [12] is H. influenzae HI3542. The description is as above. Type of data set: cell-based. The settings on record: Haemophilus influenzae, HI3542; Gram negative bacteria; read-out: Minimum Inhibitory Concentrations H. influenzae HI3542.
Source text: as §2

The test system of data set [13] is E. coli Tol C. The description is as above. The settings on record: Escherichia coli, read-out: Minimum Inhibitory Concentrations E. coli Tol C. Type of data set: cell-based.
Source text: as §2

Data set [14] concerns E. faeciaum EF4-3836. As to the kind of experiment: Cross resistance antibacterial assay (MIC), strain 5. The settings on record: read-out: Minimum Inhibitory Concentrations in Strain 5.
Description: as §3
Data set [15] concerns H. influenziae Hi-3113. As to the kind of experiment: Cross resistance antibacterial assay (MIC), strain 13. Type of data set: cell-based. The settings on record: H. influenziae Hi-3113, B-lactamase; read-out: Minimum Inhibitory Concentrations in Strain 13.
Source text: as §1
13. H. influenziae Hi-3113: B-lactamase

Data set [16] concerns S. pneumoniae SP-3536. In words: Cross resistance antibacterial assay (MIC), strain 10. Type of data set: cell-based. As to conditions: Streptococcus pneumoniae, SP3536; S. pneumoniae SP-3536, multiple drug resistant (B-lactamase and macrolide-R); read-out: Minimum Inhibitory Concentrations in Strain 10.
Source text: as §1

Data set [17] deals with S. pneumoniae SP-3561. In words: Cross resistance antibacterial assay (MIC), strain 11. Type of data set: cell-based. As to conditions: Streptococcus pneumoniae, SP3561; S. pneumoniae SP-3561, multiple drug resistant (penicillin, macrolide-R, tetracycline etc.); read-out: Minimum Inhibitory Concentrations in Strain 11.
Source text: as §1

In data set [18] the test system is S. pyogenes SP1-3541. In words: Cross resistance antibacterial assay (MIC), strain 12. The settings on record: Streptococcus pyogenes, SP13541; S. pyogenes SP1-3541, multiple drug resistant (MLS); read-out: Minimum Inhibitory Concentrations in Strain 12. Type of data set: cell-based.
Source text: as §1

In data set [19] the test system is S. aureus SA-3840. In words: Cross resistance antibacterial assay (MIC), strain 9. The class given is cell-based. The settings on record: Staphylococcus aureus, SA3840; S. aureus SA-3840, multiple drug resistant (linezolid and methicillin); read-out: Minimum Inhibitory Concentrations in Strain 9.
Source text: as §1

Results on 8 molecules are retold here after patent US20050288273A1, “Antibacterial agents” (priority 2003, published 2005).

≈ marks a conversion by molar mass, not a printed value. Some results are limits rather than exact numbers.

For `CC(=O)NC[C@H]1CN(c2ccc3c(c2)CCCc2cn[nH]c2-3)C(=O)O1` [Example 3, (S)-N-[2-Oxo-3-(1,4,5,6-tetrahydro-1,2-diaza-benzo[e]azulen-8-yl)oxazolidin-5-ylmethyl]acetamide], the MIC is 1 µg/mL (≈ 2.94 µM) in data set [1]; 0.5 µg/mL (≈ 1.47 µM) in [3]; 8 µg/mL (≈ 23.5 µM) in data set [4]; 0.25 µg/mL (≈ 0.734 µM) in data set [5]; 16 µg/mL (≈ 47 µM) in [6]; 0.5 µg/mL (≈ 1.47 µM) in [7]. Besides, the MIC in data set [8] was 0.125 µg/mL (≈ 0.367 µM); in [9], 0.25 µg/mL (≈ 0.734 µM); in [10] it was 0.5 µg/mL (≈ 1.47 µM); in [11], 2 µg/mL (≈ 5.88 µM); in data set [12] it was 2 µg/mL (≈ 5.88 µM); in data set [13], over 64 µg/mL. For the same molecule, the MIC in data set [14] amounted to 1 µg/mL (≈ 2.94 µM). For the same molecule, the “PD50 (median protective dose)” value in [2] (S. pyogenes C-203, oral) was determined as 6.4 mg/kg; in data set [2] (S. pyogenes C-203, subcutaneous) it was 2.1 mg/kg.

As for `CC(=O)NC[C@H]1CN(c2ccc3c(c2)CCCc2cnoc2-3)C(=O)O1` [Example 3A, (S)-N-[3-(5,6-dihydro-4H-1-oxa-2-aza-benzo[e]azulen-8-yl)-2-oxo-oxalidin-5-ylmethyl]acetamide], the MIC was determined as 0.5 µg/mL (≈ 1.46 µM) in [1]; 2 µg/mL (≈ 5.86 µM) in [15]; 1 µg/mL (≈ 2.93 µM) in data set [3]; 48 µg/mL (≈ 141 µM) in data set [4]; 4 µg/mL (≈ 11.7 µM) in data set [16]; 0.25 µg/mL (≈ 0.732 µM) in data set [5]. Moreover, the MIC is 4 µg/mL (≈ 11.7 µM) in data set [6]; 0.25 µg/mL (≈ 0.732 µM) in [17]; 0.5 µg/mL (≈ 1.46 µM) in data set [18]; 0.5 µg/mL (≈ 1.46 µM) in data set [10]; 4 µg/mL (≈ 11.7 µM) in data set [19]; 1 µg/mL (≈ 2.93 µM) in data set [14].

`CC(C)(C)OC(=O)NC[C@H]1CN(c2ccc3c(c2)CCCc2cn[nH]c2-3)C(=O)O1` [Example 56, (S)-[2-Oxo-3-(1,4,5,6-tetrahydro-1,2-diaza-benzo[e]azulen-8-yl)-oxazolidin-5-ylmethyl]-carbamic acid tert-butyl ester] displayed a melting point of 85 to 100 °C. The MIC in data set [7] amounted to 1 µg/mL (≈ 2.51 µM). The MIC in data set [8] came out at 4 µg/mL (≈ 10 µM). Further, the MIC in data set [9] came to 4 µg/mL (≈ 10 µM). Moreover, the MIC in data set [11] amounted to 16 µg/mL (≈ 40.2 µM). Also, the MIC in data set [12] was over 64 µg/mL. Further, the MIC in data set [13] was over 64 µg/mL.

For the molecule `O=C1O[C@@H](COc2ccon2)CN1c1ccc2c(c1)CCCc1cn[nH]c1-2` [Example 158, (R)-5-(Isoxazol-3-yloxymethyl)-3-(1,4,5,6-tetrahydro-1,2-diaza-benzo[e]azulen-8-yl)-oxazolidin-2-one], the MIC in data set [7] is 1 µg/mL (≈ 2.73 µM); in [8], 1 µg/mL (≈ 2.73 µM); in data set [9] it was 2 µg/mL (≈ 5.46 µM); in [11], 8 µg/mL (≈ 21.8 µM); in [12], over 64 µg/mL; in data set [13], over 64 µg/mL.

Regarding `O=C1O[C@@H](COc2ccccn2)CN1c1ccc2c(c1)CCCc1cn[nH]c1-2` [Example 164, (R)-5-(Pyridin-2-yloxymethyl)-3-(1,4,5,6-tetrahydro-1,2-diaza-benzo[e]azulen-8-yl)-oxazolidin-2-one], the MIC was 4 µg/mL (≈ 10.6 µM) in [7]; 2 µg/mL (≈ 5.31 µM) in data set [8]; 4 µg/mL (≈ 10.6 µM) in data set [9]; over 64 µg/mL in data set [11]; over 64 µg/mL in data set [12]; over 64 µg/mL in [13].

Turning to `O=C1O[C@@H](COc2ccccn2)CN1c1ccc2c(c1)CCCc1cnoc1-2` [Example 165, (R)-3-(5,6-Dihydro-4H-1-oxa-2-aza-benzo[e]azulen-8-yl)-5-(pyridin-2-yloxymethyl)-oxazolidin-2-one], the MIC is 4 µg/mL (≈ 10.6 µM) in data set [7]; 2 µg/mL (≈ 5.3 µM) in [8]; 4 µg/mL (≈ 10.6 µM) in [9]; over 64 µg/mL in [11]; over 64 µg/mL in data set [12]; over 64 µg/mL in data set [13].

On to `Br.CC(=O)NC[C@H]1CN(c2ccc3c(c2)CCCc2sc(N)nc2-3)C(=O)O1` [Example 186, (S)-N-[3-(2-Amino-5,6-dihydro-4H-3-thia-1-aza-benzo[e]azulen-8-yl)-2-oxo-oxazolidin-5-ylmethyl]-acetamide hydrobromic acid salt], for which the MIC in data set [7] is 2 µg/mL; in data set [8] it was 1 µg/mL; in data set [9] it was 1 µg/mL; in [11] it was 8 µg/mL; in data set [12] it was 4 µg/mL; in data set [13], over 64 µg/mL.

In the case of `CC(=O)NC[C@H]1CN(c2ccc3c(c2)CCCc2c-3nn(CCO)c2-c2ccncc2)C(=O)O1` [Example 209, (S)-N-{3-[2-(2-Hydroxy-ethyl)-3-pyridin-4-yl-2,4,5,6-tetrahydro-1,2-diaza-benzo[e]azulen-8-yl]-2-oxo-oxazolidin-5-ylmethyl}-acetamide], the MIC is 16 µg/mL (≈ 34.7 µM) in data set [7]; 4 µg/mL (≈ 8.67 µM) in data set [8]; 8 µg/mL (≈ 17.3 µM) in data set [9]; over 64 µg/mL in data set [11]; 32 µg/mL (≈ 69.3 µM) in [12]; over 64 µg/mL in data set [13].
